Measured values reported in patent US11324762B2, “Deuterated derivatives of psilocybin and uses thereof” (Lennham Pharmaceuticals, Inc., priority 2020, dated 2022).

Assays:
Type in all cases: in vitro ADME
human hepatocytes = test: metabolic stability and metabolite formation in human hepatocytes; settings: 1 μM, 60 min
Description: (§1) A study was conducted to assess the metabolic stability and metabolite formulation of psilocin and d10-psilocin (the compound of Formula (IB-1)) in human hepatocytes under the conditions set forth in Table 1.

[1] = as above; settings: 1.0 million viable cells/ml, 37° C., 0-60 min
Description: as §1

human MAO-A [2] = biological target: T1, human MAO-A (Homo sapiens, UniProt P21397); test: metabolism of psilocin and d10-psilocin by human MAO-A (Example 3); settings: 0.2 μM, protein 1 mg/ml, 0-30 min, FIG. 2
T1 sequence (P21397 1-527): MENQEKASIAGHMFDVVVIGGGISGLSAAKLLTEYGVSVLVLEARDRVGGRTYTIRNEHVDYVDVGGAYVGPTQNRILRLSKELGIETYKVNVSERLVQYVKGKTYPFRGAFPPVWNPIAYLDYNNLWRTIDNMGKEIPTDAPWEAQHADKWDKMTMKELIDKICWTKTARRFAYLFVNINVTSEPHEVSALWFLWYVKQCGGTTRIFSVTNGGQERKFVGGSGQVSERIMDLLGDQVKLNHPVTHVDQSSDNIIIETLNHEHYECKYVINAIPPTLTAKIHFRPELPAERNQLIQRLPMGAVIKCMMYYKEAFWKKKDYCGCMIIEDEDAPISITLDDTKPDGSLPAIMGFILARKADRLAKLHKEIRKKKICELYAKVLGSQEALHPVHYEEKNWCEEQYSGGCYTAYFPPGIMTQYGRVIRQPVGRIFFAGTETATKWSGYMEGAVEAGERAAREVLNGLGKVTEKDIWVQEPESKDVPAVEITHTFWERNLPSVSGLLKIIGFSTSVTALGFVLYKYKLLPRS
Description: A study was conducted to assess the metabolism of psilocin and d10-psilocin (the compound of Formula (IB-1)) by human MAO-A under the conditions set forth in Table 3.

human MAO-A [3] = biological target: T1, human MAO-A; test: metabolism of psilocin by human MAO-A (Example 2); settings: 0.2 and 2 μM, protein 0.03-1 mg/ml, 0-30 min, FIGS. 1A & 1B

| SMILES | metabolite 4-hydroxy-indole-3-acetic acid after 60-minute incubation (human hepatocytes) | parent remained after the 60-minute incubation (human hepatocytes) | half-life at 1 μM [1] [h] | rate of metabolism by human MAO-A compared with psilocin (human MAO-A [2]) | metabolism by human MAO-A (human MAO-A [3]) |
| --- | --- | --- | --- | --- | --- |
| [2H]C([2H])([2H])N(C([2H])([2H])[2H])C([2H])([2H])C([2H])([2H])c1c[nH]c2cccc(O)c12 [d10-psilocin] | undetected | approximately 84% | 4.97 | metabolized more slowly by human MAO-A than psilocin |  |
| CN(C)CCc1c[nH]c2cccc(O)c12 [psilocin, 4-hydroxy-N,N-dimethyltryptamine] |  | approximately 78% | 2.97 |  | metabolized by human MAO-A |
